The values below are quoted from earlier work in patent US6156769A (priority 2000, dated 2000).

The subject of this series is pruritus. To be noted: i.v. morphine.

Take `CN1CC[C@]23c4c5ccc(O)c4O[C@H]2[C@@H](O)C=C[C@H]3[C@H]1C5` [morphine]: the generalized itching result is on record as “about 1 % of patients”.
